Where two headings read alike, the source gives them in different places.
Legend:
Hs294T = experiment: Growth inhibition assay (SRB assay), melanoma cell line Hs294T; format: cell-based, human; settings: Homo sapiens, Hs 294T, 72 h, mean ± SD
Procedure: (§1) Three human cancer cell lines were used to evaluate the antiproliferative activity of the obtained compounds: melanoma cell line Hs294T, pancreatic tumor cell line MIA PaCa-2, and lung tumor cell line NCI-H1581. The normal mouse fibroblasts cell line (BALB/3T3 clone A31) was selected as reference. All these lines were purchased from the ATCC (American Type Culture Collection, Rockville, MD, USA). NCI-H1581 cells were grown in RPMI 1640 with GlutaMax medium (Gibco, Thermo Fisher Scientific, Leicestershire, UK) with 5% fetal bovine serum (FBS; HyClone, GE Healthcare, Logan, UT, USA). Hs294T and BALB/3T3 cells were grown in Dulbecco’s Modified Eagle Medium (DMEM; Gibco, Thermo Fisher Scientific, Leicestershire, UK) supplemented with 2 mM L-glutamine and 10% FBS (HyClone, GE Healthcare, Logan, UT, USA). MIA PaCa-2 cells were grown in DMEM (Gibco, Thermo Fisher Scientific, Leicestershire, UK) supplemented with 2 mM L-glutamine, 2.5% Horse Serum (Gibco, Thermo Fisher Scientific, Leicestershire, UK), and 10% FBS (HyClone, GE Healthcare, Logan, UT, USA). All culture media were supplemented with antibiotics: 100 U/mL penicillin (Polfa Tarchomin SA, Warsaw, Poland) and 100 µg/mL streptomycin (Sigma-Aldrich Chemie GmbH, Steinheim, Germany); cells were grown at 37 °C in a humid atmosphere with 5% CO2.
(§2) Twenty-four hours prior to the addition of the tested compounds, 2000 cells per well of Balb/3T3, MIA PaCa-2, and Hs294T cell lines and 2500 cells of NCI-H1581 cell line were seeded in 384-well plates (Greiner Bio-One, Kremsmünster, Austria) in an appropriate medium. The studied compounds were added to the cells at 8 different concentrations in a series of dilutions from 100 to 0.00001 µg/mL for 72 h. Cisplatin was applied as a reference compound (Teva Pharmaceuticals, Warsaw, Poland). DMSO (Sigma-Aldrich Chemie GmbH, Steinheim, Germany) was used as solvent control. The DMSO concentrations corresponded to the solvent concentrations in the tested compound solutions. Then, 30 µL per well of ice-cold 50% TCA (trichloroacetic acid, Avantor, Gliwice, Poland) was added to the cells. After one hour of incubation at room temperature (RT) cells were washed five times with water and stained with 0.4% SRB (sulforhodamine B, Sigma-Aldrich Chemie GmbH, Steinheim, Germany). Twenty-five microliters per well of 0.4% solution of SRB in 1% acetic acid (Avantor, Gliwice, Poland) was applied. After 0.5 h of incubation at RT, the unbound dye was washed out with 1% acetic acid. The bound dye in each well was dissolved in 70 µl of 10 mM TRIS (Tris base, Sigma-Aldrich, Chemie GmbH, Steinheim, Germany). A microplate reader (BioTek Synergy H4, Swindon, UK) with Gen5 software was used to read the absorbance at 540 nm. The results are presented as mean IC50 values (concentration of the compound that inhibits cell proliferation by 50%) ± standard deviation. Half-maximal inhibitory concentration (IC50) values were calculated using the Prolab-3 system based on Cheburator 0.4 [22]. Each experiment was performed in triplicate, and three independent repetitions were made for each experiment. Raw data and IC50 values were placed in the supplementary materials.

MIA PaCa-2 = experiment: Growth inhibition assay (SRB assay), pancreatic tumor cell line MIA PaCa-2; format: cell-based, human; settings: Homo sapiens, mean ± SD
Procedure: as §1, §2

NCI-H1581 = experiment: Growth inhibition assay (SRB assay), lung tumor cell line NCI-H1581; format: cell-based, human; settings: for IC50: 72 h, SRB, mean ± SD; for SI (Selectivity Index): SI = IC50 for normal cell line BALB/3T3 / IC50 for NCI-H1581
Procedure: as §1, §2

BALB/3T3 clone A31 = experiment: Growth inhibition assay (SRB assay), normal fibroblasts BALB/3T3 clone A31; format: cell-based, mouse; settings: mean ± SD
Procedure: as §1, §2

[1] = Solvability in DMSO (table footnote); format: physicochemical; design: key to solvability in dimethyl sulfoxide (DMSO): **: poor or no solvability in dimethyl sulfoxide (DMSO); key to solvability in DMSO: [b]: poor or no solvability in DMSO
[2] = supplement, read-out: IC50 Hs294T (raw data)
[3] = MIA PaCa-2, 72 h, read-out: IC50 MIA PaCa-2
[4] = MIA PaCa-2, supplement, 72 h, read-out: IC50 MIA PaCa-2 (raw data)
[5] = Homo sapiens, NCI-H1581, 72 h, read-out: IC50 NCI-H1581
[6] = Homo sapiens, NCI-H1581, 72 h, supplement, read-out: IC50 NCI-H1581 (raw data)
[7] = Mus musculus, BALB/3T3 clone A31, 72 h, normal cell line, read-out: IC50 BALB3T3
[8] = Mus musculus, BALB/3T3 clone A31, 72 h, supplement, read-out: IC50 BALB3T3 (raw data)
[9] = 72 h, normal cell line, read-out: IC50 BALB3T3

SMILES | IC50 (Hs294T; read-out: IC50 Hs294T) [µM] | IC50 (Hs294T; [2]) | IC50 (MIA PaCa-2; [3]) [µM] | IC50 (MIA PaCa-2; [4]) | IC50 (NCI-H1581; [5]) [µM] | IC50 (NCI-H1581; [6]) | SI (Selectivity Index) (NCI-H1581) | IC50 (BALB/3T3 clone A31; [7]) [µM] | IC50 (BALB/3T3 clone A31; [8]) | IC50 (BALB/3T3 clone A31; [9]) [µM] | solvability in dimethyl sulfoxide (DMSO) [1] | solvability in DMSO ([1]; supplement) | IC50 (Hs294T; supplement, read-out: IC50 Hs294T (non-rounded data)) [µM] | IC50 (MIA PaCa-2; MIA PaCa-2, supplement, 72 h, read-out: IC50 MIA PaCa-2 (non-rounded data)) [µM] | IC50 (NCI-H1581; Homo sapiens, NCI-H1581, 72 h, supplement, read-out: IC50 NCI-H1581 (non-rounded data)) [µM] | IC50 (BALB/3T3 clone A31; Mus musculus, BALB/3T3 clone A31, 72 h, supplement, read-out: IC50 BALB3T3 (non-rounded data)) [µM] | IC50 (NCI-H1581; read-out: IC50 NCI-H1581) [µM]
C[C@@H](c1ccccc1)N1C[C@@H](n2cc(COCc3ccccc3)nn2)[C@@H]2CC[C@H]1C2 [Compound 8, (1S,4S,5R)-4-(4-((benzyloxy)methyl)-1H-1,2,3-triazol-1-yl)-2-((S)-1-phenylethyl)-2-azabicyclo[3.2.1]octane] | 73.8 ± 10.1 | 29.7 ± 4.07 µg/mL | 79.12 ± 0.5 | 31.85 ± 0.2 µg/mL | 15.48 ± 0.12 | 6.23 ± 0.05 µg/mL | 4 | 61.5 ± 3.28 | 24.7 ± 1.32 µg/mL |  |  |  |  |  |  |  | 
C[C@@H](c1ccccc1)N1C[C@H](n2cc(COCc3ccccc3)nn2)[C@@H]2CC[C@H]1C2 [Compound 9, (1S,4R,5R)-4-(4-((benzyloxy)methyl)-1H-1,2,3-triazol-1-yl)-2-((S)-1-phenylethyl)-2-azabicyclo[3.2.1]octane] | 70.9 ± 5.86 | 28.5 ± 2.36 µg/mL | 76.5 ± 4.37 | 30.8 ± 1.76 µg/mL | 8.52 ± 1.39 | 3.43 ± 0.56 µg/mL | 6 | 50 ± 3.25 | 20.1 ± 1.31 µg/mL |  |  |  |  |  |  |  | 
C[C@@H](c1ccccc1)N1C[C@@H](n2cc(CCCc3cn([C@@H]4CN([C@@H](C)c5ccccc5)[C@H]5CC[C@@H]4C5)nn3)nn2)[C@@H]2CC[C@H]1C2 [Compound 10, 1,3-Bis-(1-((1S,4S,5R)-2-((S)-1-phenylethyl)-2-azabicyclo[3.2.1]octan-4-yl)-1H-1,2,3-triazol-4-yl) propane] | 10.3 ± 3.39 | 6.26 ± 2.05 µg/mL | 40.2 ± 1.6 | 24.3 ± 0.97 µg/mL | 4.2 ± 0.36 | 2.54 ± 0.22 µg/mL | 3 | 11.8 ± 5.03 | 7.17 ± 3.04 µg/mL |  |  |  |  |  |  |  | 
C[C@@H](c1ccccc1)N1C[C@H](n2cc(CCCc3cn([C@H]4CN([C@@H](C)c5ccccc5)[C@H]5CC[C@@H]4C5)nn3)nn2)[C@@H]2CC[C@H]1C2 [Compound 11, 1,3-Bis-(1-((1S,4R,5R)-2-((S)-1-phenylethyl)-2-azabicyclo[3.2.1]octan-4-yl)-1H-1,2,3-triazol-4-yl) propane] | 9.71 ± 3.08 | 5.87 ± 1.86 µg/mL | 37.6 ± 5.51 | 22.7 ± 3.33 µg/mL | 4.4 ± 0.61 | 2.66 ± 0.37 µg/mL | 6 | 26.7 | 16.2 ± 2.88 µg/mL | 26.7 ± 4.76 | 11 ** | [b] |  |  |  |  | 
C[C@@H](c1ccccc1)N1C[C@@H](n2cc(COCc3cn([C@@H]4CN([C@@H](C)c5ccccc5)[C@H]5CC[C@@H]4C5)nn3)nn2)[C@@H]2CC[C@H]1C2 [Compound 12, (1S,1′S,4S,4′S,5R,5′R)-4,4′-(4,4′-(oxybis(methylene))bis(1H-1,2,3-triazole-4,1-diyl))bis(2-((S)-1-phenylethyl)-2-azabicyclo[3.2.1]octane)] | 32.4 ± 7.83 | 19.7 ± 4.75 µg/mL | 51.5 ± 1.6 | 31.2 ± 0.97 µg/mL | 6 ± 0.86 | 3.64 ± 0.52 µg/mL | 7 | 44.4 ± 7.5 | 26.9 ± 4.55 µg/mL |  |  |  |  |  |  |  | 
C[C@@H](c1ccccc1)N1C[C@H](n2cc(COCc3cn([C@H]4CN([C@@H](C)c5ccccc5)[C@H]5CC[C@@H]4C5)nn3)nn2)[C@@H]2CC[C@H]1C2 [Compound 13, (1S,1′S,4R,4′R,5R,5′R)-4,4′-(4,4′-(oxybis(methylene))bis(1H-1,2,3-triazole-4,1-diyl))bis(2-((S)-1-phenylethyl)-2-azabicyclo[3.2.1]octane)] | 13.7 ± 2.31 | 8.28 ± 1.4 µg/mL | 44.9 ± 3.69 | 27.2 ± 2.24 µg/mL | 4.88 ± 0.41 | 2.96 ± 0.25 µg/mL | 9 | 46.1 | 27.9 ± 6.85 µg/mL | 46.1 ± 11.3 |  |  |  |  |  |  | 
C[C@@H](c1ccccc1)N1C[C@H](n2cc(-c3cccc(-c4cn([C@H]5CN([C@@H](C)c6ccccc6)[C@H]6CC[C@@H]5C6)nn4)c3)nn2)[C@@H]2CC[C@H]1C2 [Compound 17, 1,3-Bis-(1-((1S,4R,5R)-2-((S)-1-phenylethyl)-2-azabicyclo[3.2.1]octan-4-yl)-1H-1,2,3-triazol-4-yl) benzene] | > 100 | > 100 µM | > 100 | > 100 µM | > 100 | > 100 µM |  | > 100 | > 100 µM |  |  |  | > 100 | > 100 | > 100 | > 100 | 
C[C@@H](c1ccccc1)N1C[C@@H](n2cc(CN(Cc3cn([C@@H]4CN([C@@H](C)c5ccccc5)[C@H]5CC[C@@H]4C5)nn3)Cc3cn([C@@H]4CN([C@@H](C)c5ccccc5)[C@H]5CC[C@@H]4C5)nn3)nn2)[C@@H]2CC[C@H]1C2 [Compound 18, N,N,N-tri((1-((1S,4S,5R)-2-((S)-1-phenylethyl)-2-azabicyclo[3.2.1]octan-4-yl)-1H-1,2,3-triazol-4-yl)methyl) amine] | 20.8 ± 5.02 | 18.8 ± 4.52 µg/mL | 25.7 ± 0.26 | 23.11 ± 0.23 µg/mL | 2.4 | 2.2 ± 0.06 µg/mL |  | 23.1 ± 2.72 | 20.8 ± 2.45 µg/mL |  |  |  |  |  |  |  | 2.44 ± 0.07
C[C@@H](c1ccccc1)N1C[C@H](n2cc(CN(Cc3cn([C@H]4CN([C@@H](C)c5ccccc5)[C@H]5CC[C@@H]4C5)nn3)Cc3cn([C@H]4CN([C@@H](C)c5ccccc5)[C@H]5CC[C@@H]4C5)nn3)nn2)[C@@H]2CC[C@H]1C2 [Compound 19, N,N,N-tris((1-((1S,4R,5R)-2-((S)-1-phenylethyl)-2-azabicyclo[3.2.1]octan-4-yl)-1H-1,2,3-triazol-4-yl)methyl) amine] | 29.1 ± 1.36 | 26.2 ± 1.22 µg/mL | 31.8 ± 2.31 | 28.7 ± 2.08 µg/mL | 3.27 ± 0.42 | 2.94 ± 0.38 µg/mL |  | 27.7 ± 3.24 | 24.9 ± 2.92 µg/mL |  |  |  |  |  |  |  | 
CC(c1ccccc1)N1CC(n2cc(C3C4CCC(C4)N3C(C)c3ccccc3)nn2)C2CCC1C2 (stereo not shown) [Compound 20] | 57 ± 13.6 | 27.5 ± 6.57 µg/mL | 63 ± 7.29 | 30.4 ± 3.51 µg/mL | 6.3 | 3.01 ± 0.66 µg/mL | 6 | 39.4 ± 4.86 | 19 ± 2.34 µg/mL |  |  |  |  |  |  |  | 6.25 ± 1.37

Source: publication PMC8072719, “Synthesis and Antiproliferative Activity of Triazoles Based on 2-Azabicycloalkanes” (Materials, 2021)
